From patent US12077503B2, “Substituted cyclic amides and their use as herbicides” (FMC CORPORATION, priority 2015, dated 2024)

Assays:
Format in all cases: in vivo
[1] = test system: ragweed (common ragweed, Ambrosia elatior); assay: Test A postemergence; details: Ambrosia artemisiifolia, post-emergence, 240 h, Postemergence; for pest or weed control at 125 g/ha: 125 g ai/ha, visual rating about 10 d after treatment, read-out: Ragweed plant response rating (0 to 100 scale); for pest or weed control at 500 g/ha: 500 g ai/ha, visual injury, 0 to 100 scale (0 no effect, 100 complete control), approx. 10 d, read-out: Plant response rating, Ragweed
Procedure, shortened: (§1)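 Ratings of 0 (no effect) to 100 (complete control) come from visual comparison with untreated controls roughly 10 d after treatment. Test chemicals, formulated in a non-phytotoxic solvent mixture with surfactant, were applied either as a preemergence directed soil spray on seeded soil or postemergence to one- to two-leaf plants 2 to 10 cm tall.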

[2] = test system: pigweed (Amaranthus retroflexus); assay: Test A postemergence; details: Amaranthus retroflexus, post-emergence, 240 h, Postemergence; for pest or weed control at 125 g/ha: 125 g ai/ha, visual rating about 10 d after treatment, read-out: Pigweed plant response rating (0 to 100 scale); for pest or weed control at 500 g/ha: 500 g ai/ha, visual injury, 0 to 100 scale (0 no effect, 100 complete control), approx. 10 d, read-out: Plant response rating, Pigweed
Procedure, shortened: as §1

[3] = test system: wheat (Triticum aestivum); assay: Test A postemergence; details: Triticum aestivum, post-emergence, 240 h, Postemergence; for plant injury at 125 g/ha: 125 g ai/ha, visual rating about 10 d after treatment, read-out: Wheat plant response rating (0 to 100 scale); for plant injury at 500 g/ha: 500 g ai/ha, visual injury, 0 to 100 scale (0 no effect, 100 complete control), approx. 10 d, read-out: Plant response rating, Wheat
Procedure, shortened: as §1

[4] = test system: Kochia (Kochia scoparia); assay: Test A postemergence; details: Bassia scoparia, post-emergence, 240 h, Postemergence; for pest or weed control at 125 g/ha: 125 g ai/ha, visual rating about 10 d after treatment, read-out: Kochia plant response rating (0 to 100 scale); for pest or weed control at 500 g/ha: 500 g ai/ha, visual injury, 0 to 100 scale (0 no effect, 100 complete control), approx. 10 d, read-out: Plant response rating, Kochia
Procedure, shortened: as §1

[5] = test system: Galium (catchweed bedstraw, Galium aparine); assay: Test A postemergence; details: Galium, post-emergence, 240 h, Postemergence; for pest or weed control at 125 g/ha: 125 g ai/ha, visual rating about 10 d after treatment, read-out: Galium plant response rating (0 to 100 scale); for pest or weed control at 500 g/ha: 500 g ai/ha, visual injury, 0 to 100 scale (0 no effect, 100 complete control), approx. 10 d, read-out: Plant response rating, Galium
Procedure, shortened: as §1

[6] = test system: corn (Zea mays); assay: Test A postemergence; details: Zea mays, post-emergence, 240 h, Postemergence; for plant injury at 125 g/ha: 125 g ai/ha, visual rating about 10 d after treatment, read-out: Corn plant response rating (0 to 100 scale); for Corn plant response rating (crop injury, 0 = no effect, 100 = complete kill) at 500 g/ha: 500 g ai/ha, visual injury, 0 to 100 scale (0 no effect, 100 complete control), approx. 10 d
Procedure, shortened: as §1

[7] = test system: ryegrass, Italian (Italian ryegrass, Lolium multiflorum); assay: Test A postemergence; details: Lolium multiflorum, post-emergence, 240 h, Postemergence; for pest or weed control at 125 g/ha: 125 g ai/ha, visual rating about 10 d after treatment, read-out: Ryegrass, Italian plant response rating (0 to 100 scale); for pest or weed control at 500 g/ha: 500 g ai/ha, visual injury, 0 to 100 scale (0 no effect, 100 complete control), approx. 10 d, read-out: Plant response rating, Ryegrass, Italian
Procedure, shortened: as §1

[8] = test system: barnyardgrass (Echinochloa crus-galli); assay: Test A postemergence; details: Echinochloa crus-galli, post-emergence, 240 h, Postemergence; for pest or weed control at 125 g/ha: 125 g ai/ha, visual rating about 10 d after treatment, read-out: Barnyardgrass plant response rating (0 to 100 scale, 0 no effect, 100 complete control); for pest or weed control at 500 g/ha: 500 g ai/ha, visual injury, 0 to 100 scale (0 no effect, 100 complete control), approx. 10 d, read-out: Plant response rating, Barnyardgrass
Procedure, shortened: as §1

[9] = test system: giant foxtail (Setaria faberii); assay: Test A postemergence; details: Setaria faberi, post-emergence, 240 h, Postemergence; for pest or weed control at 125 g/ha: 125 g ai/ha, visual rating about 10 d after treatment, read-out: Foxtail, Giant plant response rating (0 to 100 scale); for pest or weed control at 500 g/ha: 500 g ai/ha, visual injury, 0 to 100 scale (0 no effect, 100 complete control), approx. 10 d, read-out: Plant response rating, Foxtail, Giant
Procedure, shortened: as §1

[10] = test system: blackgrass (Alopecurus myosuroides); assay: Test A postemergence; details: Alopecurus myosuroides, post-emergence, 240 h, Postemergence; for pest or weed control at 125 g/ha: 125 g ai/ha, visual rating about 10 d after treatment, read-out: Blackgrass plant response rating (0 to 100 scale); for pest or weed control at 500 g/ha: 500 g ai/ha, visual injury, 0 to 100 scale (0 no effect, 100 complete control), approx. 10 d, read-out: Plant response rating, Blackgrass
Procedure, shortened: as §1

[11] = test system: ragweed (common ragweed, Ambrosia elatior); assay: Test A preemergence; details: Ambrosia artemisiifolia, pre-emergence, 240 h, 0 to 100 scale (0 no effect, 100 complete control), read-out: Plant response rating, Ragweed; for pest or weed control at 500 g/ha: 500 g ai/ha, preemergence; for pest or weed control at 125 g/ha: Preemergence, 125 g ai/ha
Procedure, shortened: as §1

[12] = test system: pigweed (Amaranthus retroflexus); assay: Test A preemergence; details: Amaranthus retroflexus, pre-emergence, 240 h, 0 to 100 scale (0 no effect, 100 complete control), read-out: Plant response rating, Pigweed; for pest or weed control at 500 g/ha: 500 g ai/ha, preemergence; for pest or weed control at 125 g/ha: Preemergence, 125 g ai/ha
[13] = test system: Kochia (Kochia scoparia); assay: Test A preemergence; details: Bassia scoparia, pre-emergence, 240 h, 0 to 100 scale (0 no effect, 100 complete control), read-out: Plant response rating, Kochia; for pest or weed control at 500 g/ha: 500 g ai/ha, preemergence; for pest or weed control at 125 g/ha: Preemergence, 125 g ai/ha
Procedure, shortened: as §1

[14] = test system: ryegrass, Italian (Italian ryegrass, Lolium multiflorum); assay: Test A preemergence; details: Lolium multiflorum, pre-emergence, 240 h, 0 to 100 scale (0 no effect, 100 complete control), read-out: Plant response rating, Ryegrass, Italian; for pest or weed control at 500 g/ha: 500 g ai/ha, preemergence; for pest or weed control at 125 g/ha: Preemergence, 125 g ai/ha
Procedure, shortened: as §1

[15] = test system: barnyardgrass (Echinochloa crus-galli); assay: Test A preemergence; details: Echinochloa crus-galli, pre-emergence, 240 h, 0 to 100 scale (0 no effect, 100 complete control), read-out: Plant response rating, Barnyardgrass; for pest or weed control at 500 g/ha: 500 g ai/ha, preemergence; for pest or weed control at 125 g/ha: Preemergence, 125 g ai/ha
Procedure, shortened: as §1

CN1C[C@H](c2ccc(OC(F)F)cc2)[C@@H](C(=O)Nc2ccccc2F)C1=O [Compound 1371]
pest or weed control at 125 g/ha [1]: 20% | pest or weed control at 500 g/ha [1]: 60% | pest or weed control at 125 g/ha [2]: 30% | pest or weed control at 500 g/ha [2]: 60% | plant injury at 125 g/ha [3]: 10% | plant injury at 500 g/ha [3]: 60% | pest or weed control at 125 g/ha [4]: 50% | pest or weed control at 500 g/ha [4]: 80% | pest or weed control at 125 g/ha [5]: 70% | pest or weed control at 500 g/ha [5]: 70% | plant injury at 125 g/ha [6]: 40% | Corn plant response rating (crop injury, 0 = no effect, 100 = complete kill) at 500 g/ha [6]: 90% | pest or weed control at 125 g/ha [7]: 30% | pest or weed control at 500 g/ha [7]: 50% | pest or weed control at 125 g/ha [8]: 80% | pest or weed control at 500 g/ha [8]: 90% | pest or weed control at 125 g/ha [9]: 90% | pest or weed control at 500 g/ha [9]: 90% | pest or weed control at 125 g/ha [10]: 40% | pest or weed control at 500 g/ha [10]: 60% | pest or weed control at 500 g/ha [11]: 80% | pest or weed control at 125 g/ha [11]: 70% | pest or weed control at 500 g/ha [12]: 90% | pest or weed control at 125 g/ha [12]: 70% | pest or weed control at 500 g/ha [13]: 90% | pest or weed control at 125 g/ha [13]: 80% | pest or weed control at 500 g/ha [14]: 50% | pest or weed control at 125 g/ha [14]: 0% | pest or weed control at 500 g/ha [15]: 100% | pest or weed control at 125 g/ha [15]: 90%

O=C1NC[C@H](c2cnc(C(F)(F)F)nc2)[C@H]1C(=O)Nc1cccc(F)c1F [Compound 1382]
pest or weed control at 125 g/ha [1]: 0% | pest or weed control at 500 g/ha [1]: 0% | pest or weed control at 125 g/ha [2]: 0% | pest or weed control at 500 g/ha [2]: 0% | plant injury at 125 g/ha [3]: 0% | plant injury at 500 g/ha [3]: 0% | pest or weed control at 125 g/ha [4]: 0% | pest or weed control at 500 g/ha [4]: 0% | pest or weed control at 125 g/ha [5]: 0% | pest or weed control at 500 g/ha [5]: 30% | plant injury at 125 g/ha [6]: 0% | Corn plant response rating (crop injury, 0 = no effect, 100 = complete kill) at 500 g/ha [6]: 0% | pest or weed control at 125 g/ha [7]: 0% | pest or weed control at 500 g/ha [7]: 0% | pest or weed control at 125 g/ha [8]: 0% | pest or weed control at 500 g/ha [8]: 80% | pest or weed control at 125 g/ha [9]: 0% | pest or weed control at 500 g/ha [9]: 70% | pest or weed control at 125 g/ha [10]: 0% | pest or weed control at 500 g/ha [10]: 0% | pest or weed control at 500 g/ha [11]: 0% | pest or weed control at 125 g/ha [11]: 0% | pest or weed control at 500 g/ha [12]: 20% | pest or weed control at 125 g/ha [12]: 20% | pest or weed control at 500 g/ha [13]: 60% | pest or weed control at 125 g/ha [13]: 0% | pest or weed control at 500 g/ha [14]: 0% | pest or weed control at 125 g/ha [14]: 0% | pest or weed control at 500 g/ha [15]: 70% | pest or weed control at 125 g/ha [15]: 0%
